Experimental data: patent publication US20030134901A1, “Lipoxin compounds and their use in treating cell proliferative disorders” (priority 1993, published 2003)

Tests used:
PMA-treated HL-60 cells = test: Lipoxin metabolism / bio-half-life assay with phorbol ester-treated HL-60 cells; format: in vitro ADME, human; details: at times up to two hours
Protocol: HL-60 cells were purchased from American Type Culture Collection (Rockville, Md.), and other cell culture reagents were from GIBCO (Grand Island, N.Y.). Versene (EDTA) was from Whittaker Bioproducts (Walkersville, Md.). Synthetic 11,12-acetylenic LXA4 methyl ester and LXs were from Cascade Biochemical (Reading, U.K.). 15(S)-15-m-PGE1, PGE1, and 5-HETE were from Cayman Chemical Co. (Ann Arbor, Mich.). [11,12-^3H]LXA4 was prepared from 11,12-acetylenic LXA4 using Lindlar catalyst as a custom tritiation (NET-259, lot 0 2793-275, New England Nuclear, Boston, Mass.). Tritiated products were isolated using RP-HPLC (Fiore et al. (1992) J. Biol. Chem. 267:16168; Serhan, C. N. (1990) Meth. Enzymol. 187:167). Methoxyamine and NAD were from Sigma Chemical Company (St. Louis, Mo.). Manganese dioxide and Adams reagent were from Aldrich Chemical Co. (Milwaukee, Wis.).
Human PMN were obtained from healthy volunteers by gradient centrifugation of heparinized fresh venous blood (Böyum, A. ([…]) Scand. J. Clin. Lab. Invest. 21:77). HL-60 cells were seeded in RPMI supplemented with penicillin (100 U/ml), streptomycin (100 μ/ml), fetal bovine serum (10%) (Hyclone, Logan, Utah) and incubated (37° C. with 5% CO2 atmosphere) in plastic 250 ml flasks. Individual flasks containing […] HL-60 cells/ml were incubated in the presence or absence of phorbol 12-myristate 13-acetate (PMA) (10 or 16 nM, 24-27 h) and adherence was monitored for induction of macrophage-like phenotype as in Collins, S. J. (1987) Blood 70:1233. […]
Incubations with eicosanoids were stopped with cold methanol containing either PGB2 or 5-HETE as internal standards (5-HETE was used when 15-oxo-ETE was quantified). […] Formation of 15-oxo-ETE by 100,000 g supernatants (cf. Agins, A. P. et al. (1987) Agents Actions 21:397; Xun, C-Q. et al.(1991) Biochem. J. 279:553; and Sok, D-E. et al. (1988) Biochem. Biophys. Res. Commun. 156:524) was quantified after RP-HPLC using an ODS column (4.6 mm×25 cm) eluted with methanol/H2O/acetic acid (70:30:0.01, v/v/v) monitored at 280 nm with a flow rate of 1 ml/min. […] On-line spectra were recorded using a diode array detector (Hewlett-Packard 1040M series II) equipped with HPLC^3D ChemStation software (DOS series). […]
The “bio-half-life” of compounds 1-8 was assessed using phorbol ester-treated human promyelocytic leukemia (HL-60) cells as described in Example 2. […]

[1] = test system: neutrophil adhesion to endothelial cells; test: Neutrophil adhesion assay; format: cell-based; details: read-out: IC50, PMN adhesion triggered by LTB4 to human endothelial cells; triggered by leukotriene B4
Protocol: Several of the preferred LX analogs (shown structurally as compounds 1 through 8 above) were prepared by total synthesis as described in Example 1. Following preparation and isolation of these compounds via HPLC, compounds were first assessed to determine whether they retain biological activity using the neutrophil adhesion assay and epithelial cell transmigration assays (as described in Nash, S et al., (1987) J. Clin. Invest. 80:1104-1113; Nash, S et al., (1991) J. Clin. Invest. 87: 1474-1477; Parkos, C. A. et al., (1991) J. Clin. Invest. 88:1605-1612; Parkos, C. A. et al. (1992) J. Cell. Biol. 117:757-764; Madara J. L. et al., (1992) J. Tiss. Cult. Meth. 14:209-216).

- recovery in the incubation medium (bio-half-life) (PMA-treated HL-60 cells): quantitatively recovered
- IC50 [1]: ~1 nM
Structure (SMILES): CCCCCC(C)(O)C=CC=CC=CC=CC(O)C(O)CCCC(=O)O (centres unmarked) [compound 2, 15-methyl-LXA4]
